For one assay, the species on record is Mus musculus. Kind of assay: Minimum effective dose required to detect unfarnesylated Ras in H-Ras-transformed NIH3T3 (H-Ras-F) cells injected into mice. The format is functional.
The target of assay [1] is Protein farnesyltransferase (Rattus norvegicus, UniProt Q02293+Q04631). In words: In vitro inhibition of rat farnesyltransferase. The format is protein-complex assay.

Square brackets hold non-standard residues; d marks the D form. Peptide text beside a SMILES is read from it. * marks the point of attachment. Cbz = O=C(OCc1ccccc1)*; Bn = c1ccc(C*)cc1 A value given as a limit tells only on which side of the number the result lay.

As a reminder, the IC50 is the midpoint of a concentration-inhibition curve. High values mean weaker potency, low ones greater potency.

`O=C(CN(Cc1ccc(OCc2ccccc2)cc1)C(=O)[C@H](Cc1c[nH]cn1)NC(=O)OCc1ccccc1)NCCc1ccccc1`: the MED in the assay listed under Mus musculus was 0.1 µM. The same compound came in with an IC50 in assay [1] of 62 nM.

Regarding `C[C@@H](Cc1ccccc1)NC(=O)CN(Cc1ccc(OCc2ccccc2)cc1)C(=O)[C@H](Cc1c[nH]cn1)NC(=O)OCc1ccccc1`, the MED in the assay filed under Mus musculus came to 0.2 µM. For the same compound, in assay [1], the concentration for half-maximal inhibition (IC50) is 41 nM.

Compound `CC(C)(Cc1ccccc1)NC(=O)CN(Cc1ccc(OCc2ccccc2)cc1)C(=O)[C@H](Cc1c[nH]cn1)NC(=O)OCc1ccccc1` gave an MED in the assay filed under Mus musculus of 1 µM. Moreover, in assay [1], the half-inhibitory concentration (IC50) worked out at 270 nM.

In the case of `C[C@H](CNC(=O)CN(Cc1ccc(OCc2ccccc2)cc1)C(=O)[C@H](Cc1c[nH]cn1)NC(=O)OCc1ccccc1)c1ccccc1`, the MED in the assay filed under Mus musculus came to 0.05 µM. Also, the IC50 in assay [1] worked out at 5 nM.

For the compound `C[C@H](Cc1ccccc1)NC(=O)CN(Cc1ccc(OCc2ccccc2)cc1)C(=O)[C@H](Cc1c[nH]cn1)NC(=O)OCc1ccccc1`, in the assay filed under Mus musculus, the MED is 0.05 µM. Also, the IC50 in assay [1] amounted to 3 nM.

In turn, `CCC(CNC(=O)CN(Cc1ccc(OCc2ccccc2)cc1)C(=O)[C@H](Cc1c[nH]cn1)NC(=O)OCc1ccccc1)c1ccccc1` (some centres not stated) had an MED in the assay listed under Mus musculus of 0.05 µM. In assay [1], this compound returned an IC50 of 5 nM.

As to `O=C(CN(Cc1ccc(OCc2ccccc2)cc1)C(=O)[C@H](Cc1c[nH]cn1)NC(=O)OCc1ccccc1)NCC1(c2ccccc2)CCC1`, in the assay filed under Mus musculus, the MED came out at 0.02 µM. The compound also had a concentration for half-maximal inhibition (IC50) in assay [1] of 6 nM.

In the assay filed under Mus musculus, `O=C(CN(Cc1ccc(OCc2ccccc2)cc1)C(=O)[C@H](Cc1c[nH]cn1)NC(=O)OCc1ccccc1)NCCOCc1ccccc1` showed an MED of 1 µM. In assay [1], the half-maximal inhibitory concentration (IC50) turned out to be 320 nM.

`O=C(CN(Cc1ccc(OCc2ccccc2)cc1)C(=O)[C@H](Cc1c[nH]cn1)NC(=O)OCc1ccccc1)NCC1(c2ccccc2)CC1`: the MED in the assay listed under Mus musculus came to 0.02 µM. Also, the midpoint of inhibition in assay [1], the IC50, lay at 7 nM.

`CCCC(CNC(=O)CN(Cc1ccc(OCc2ccccc2)cc1)C(=O)[C@H](Cc1c[nH]cn1)NC(=O)OCc1ccccc1)c1ccccc1` (some centres not stated) had an MED in the assay filed under Mus musculus of 0.2 µM. This compound gave an IC50 in assay [1] of 25 nM.

`O=C(CN(Cc1ccc(OCc2ccccc2)cc1)C(=O)[C@H](Cc1c[nH]cn1)NC(=O)OCc1ccccc1)NCC1(c2ccccc2)CCCC1` had an MED in the assay filed under Mus musculus of 0.2 µM. The compound further returned a half-maximal inhibitory concentration (IC50) in assay [1] of 17 nM.

With `C[C@@H](NC(=O)[C@H](Cc1c[nH]c2ccccc12)NC(=O)[C@H](COCc1ccccc1)NC(=O)[C@H](Cc1ccc(OCc2ccccc2)cc1)NC(=O)[C@H](Cc1c[nH]cn1)NC(=O)OCc1ccccc1)C(N)=O` (Cbz-HY(Bn)S(Bn)W[dA]-NH2), the MED in the assay filed under Mus musculus was above 100 µM.

Regarding `C[C@@H](CNC(=O)CN(Cc1ccc(OCc2ccccc2)cc1)C(=O)[C@H](Cc1c[nH]cn1)NC(=O)OCc1ccccc1)c1ccccc1`, the MED in the assay filed under Mus musculus amounted to 0.2 µM. The same compound gave a 50% inhibitory concentration (IC50) in assay [1] of 16 nM.

In turn, `CC(CNC(=O)CN(Cc1ccc(OCc2ccccc2)cc1)C(=O)[C@H](Cc1c[nH]cn1)NC(=O)OCc1ccccc1)c1ccccc1` (some centres not stated) displayed an MED in the assay filed under Mus musculus of 0.05 µM. Besides, the IC50 in assay [1] came out at 8 nM.

The compound `CC(C)(CNC(=O)CN(Cc1ccc(OCc2ccccc2)cc1)C(=O)[C@H](Cc1c[nH]cn1)NC(=O)OCc1ccccc1)c1ccccc1` showed an MED in the assay listed under Mus musculus of 0.05 µM. Further, the half-inhibitory concentration (IC50) in assay [1] worked out at 4 nM.

As to `N#CC(CNC(=O)CN(Cc1ccc(OCc2ccccc2)cc1)C(=O)[C@H](Cc1c[nH]cn1)NC(=O)OCc1ccccc1)c1ccccc1` (some centres not stated), the MED in the assay filed under Mus musculus is 0.05 µM. For the same compound, half-maximal inhibition in assay [1] (IC50) required 2 nM.

In the case of `CCC(CC)(CNC(=O)CN(Cc1ccc(OCc2ccccc2)cc1)C(=O)[C@H](Cc1c[nH]cn1)NC(=O)OCc1ccccc1)c1ccccc1`, the MED in the assay listed under Mus musculus was 0.2 µM.

For the origin of these results see ChEMBL document CHEMBL1130182, “C-terminal modifications of histidyl-N-benzylglycinamides to give improved inhibition of Ras farnesyltransferase, cellular activity, and anticancer activity in mice” (J Med Chem, 1997).
